# Patent publication US10674732B2, “Anti-phytopathogenic compositions” (The State of Israel, Ministry Of Agriculture & Rural …, priority 2015, dated 2020)
# Tested on: DLB
# Assay: DLB antibiotic susceptibility test
# Format: cell-based, Dyella-like bacterium
# Conditions: not given
Compound,Inhibition cycle diameter,resistance of the bacterium to the antibiotic
O=C1CN(/N=C/c2ccc([N+](=O)[O-])o2)C(=O)N1 [nitrofuration],2 mm,resistant
CO/N=C(\C(=O)N[C@@H]1C(=O)N2C(C(=O)O)=C(COC(N)=O)CS[C@H]12)c1ccco1 [cefuroxime],1 mm,resistant
C[C@@H](O)[C@H]1C(=O)N2C(C(=O)O)=C(S[C@@H]3CN[C@H](C(=O)N(C)C)C3)[C@H](C)[C@H]12 [meropenem],1 mm,resistant
polymyxin-B,10 mm,
CCn1cc(C(=O)O)c(=O)c2ccc(C)nc21 [nalidixic acid],1 mm,resistant
CO/N=C(\C(=O)N[C@@H]1C(=O)N2C(C(=O)O)=C(CSc3nc(=O)c(=O)[nH]n3C)CS[C@H]12)c1csc(N)n1 [ceftriaxone],10 mm,
CC1(C)S[C@@H]2[C@H](NC(=O)[C@H](N)c3ccc(O)cc3)C(=O)N2[C@H]1C(=O)O [amoxycillin],10 mm,
O=C(N[C@H](CO)[C@H](O)c1ccc([N+](=O)[O-])cc1)C(Cl)Cl [chloramphenicol],10 mm,
C[C@H]1[C@H](NC(=O)/C(=N\OC(C)(C)C(=O)O)c2csc(N)n2)C(=O)N1S(=O)(=O)O [aztreonam],1 mm,resistant
NC[C@H]1O[C@H](O[C@H]2[C@H](O)[C@@H](O[C@H]3O[C@H](CO)[C@@H](O)[C@H](N)[C@H]3O)[C@H](N)C[C@@H]2N)[C@H](O)[C@@H](O)[C@@H]1O [kanamycin],10 mm,
CN[C@H](CC(C)C)C(=O)N[C@H]1C(=O)N[C@@H](CC(N)=O)C(=O)N[C@H]2C(=O)N[C@H]3C(=O)N[C@H](C(=O)N[C@H](C(=O)O)c4cc(O)cc(O)c4-c4cc3ccc4O)[C@H](O)c3ccc(c(Cl)c3)Oc3cc2cc(c3O[C@@H]2O[C@H](CO)[C@@H](O)[C@H](O)[C@H]2O[C@H]2C[C@](C)(N)[C@H](O)[C@H](C)O2)Oc2ccc(cc2Cl)[C@H]1O [vancomycin],10 mm,
O=C(O)c1cn(C2CC2)c2cc(N3CCNCC3)c(F)cc2c1=O [ciprofloxacin],2 mm,resistant
C[C@@H](O)[C@H]1C(=O)N2C(C(=O)O)=C(SCCN=CN)C[C@H]12 [imipenem],2-3 mm,
CN(C)[C@@H]1C(O)=C(C(N)=O)C(=O)[C@@]2(O)C(O)=C3C(=O)c4c(O)cccc4[C@@](C)(O)[C@H]3C[C@@H]12 [tetracycline],10 mm,
Cc1cc(NS(=O)(=O)c2ccc(N)cc2)no1 [sulphamethoxazole],10 mm,
CC1(C)S[C@@H]2[C@H](NC(=O)C(C(=O)O)c3ccccc3)C(=O)N2[C@H]1C(=O)O (stereo partly shown) [carbencillin],10 mm,
gentanicin G,10 mm,
COc1cc(Cc2cnc(N)nc2N)cc(OC)c1OC [trimethoprime],10 mm,
CC1(C)S[C@@H]2[C@H](NC(=O)[C@H](C(=O)O)c3ccsc3)C(=O)N2[C@H]1C(=O)O [ticarcillin],10 mm,
[H]/N=C(/N)N[C@H]1[C@H](O)[C@@H](O)[C@H](O[C@@H]2O[C@@H](C)[C@](O)(C=O)[C@H]2O[C@@H]2O[C@@H](CO)[C@H](O)[C@@H](O)[C@@H]2NC)[C@@H](N/C(N)=N\[H])[C@@H]1O [streptomycin],10 mm,
CCN1CCN(C(=O)N[C@@H](C(=O)N[C@@H]2C(=O)N3[C@@H]2SC(C)(C)[C@@H]3C(=O)O)c2ccccc2)C(=O)C1=O [piperacillin],10 mm,
CC(=O)OCC1=C(C(=O)O)N2C(=O)[C@@H](NC(=O)Cc3cccs3)[C@H]2SC1 [cephalothin],2 mm,resistant
neomycin,10 mm,
colistinsulfate,2-3 mm,resistant
NC[C@H]1O[C@H](O[C@H]2[C@H](O)[C@@H](O[C@H]3O[C@H](CO)[C@@H](O)[C@H](N)[C@H]3O)[C@H](N)C[C@@H]2N)[C@H](N)C[C@@H]1O [tobaramycin],10 mm,
CCn1cc(C(=O)O)c(=O)c2cc(F)c(N3CCNCC3)cc21 [norfloxacin],2 mm,resistant
CC1(C)S[C@@H]2[C@H](NC(=O)[C@H](N)c3ccccc3)C(=O)N2[C@H]1C(=O)O [ampicilin A],10 mm,
NCC[C@H](O)C(=O)N[C@@H]1C[C@H](N)[C@@H](O[C@H]2O[C@H](CN)[C@@H](O)[C@H](O)[C@H]2O)[C@H](O)[C@H]1O[C@H]1O[C@H](CO)[C@@H](O)[C@H](N)[C@H]1O [amikacin],10 mm,
CO/N=C(\C(=O)N[C@@H]1C(=O)N2C(C(=O)[O-])=C(C[N+]3(C)CCCC3)CS[C@H]12)c1csc(N)n1 [cefeprime],1 mm,resistant

# Tested on: spiroplasma
# Assay: Antagonistic test of the bacteria's specific compounds (synthetic compounds on spiroplasma in vitro)
# Format: cell-based, Spiroplasma melliferum
# Conditions: 1 milimolar, three days at 29° C.
# Protocol: After potential inhibitory compounds (4-Quinolinecarboxaldehyde and 5-Hydroxymethyl-2-furaldehyde) were identified in the active fraction extracts of the bacteria's supernatant, parallel synthetic compound were purchased (Sigma) and examined on spiroplasma in vitro: 1 ml of spiroplasma medium, 10 μl spiroplasma cells and 10 μl of each compound (final concentration of 1 milimolar) were incubated for three days at 29° C. […] Changes in the indicator color from red to yellow indicated spiroplasma growth.
row,Compound,spiroplasma growth inhibition
1,"O=Cc1ccc(CO)o1 [Hydroxymethyl-2-furaldehyde, 5-Hydroxymethyl-2-furaldehyde]",no inhibition
2,"O=Cc1ccnc2ccccc12 [Quinolinecarboxaldehyde, 4-Quinolinecarboxaldehyde]",able to inhibit

# Tested on: Spiroplasma melliferum
# Assay: Antagonistic test of the bacteria's supernatant (time to color change of phenol red medium)
# Conditions: 0.5 μg/ml
row,Compound,Inhibition index (ratio of days to color change to the time required in the positive control)
1,CN(C)[C@@H]1C(O)=C(C(N)=O)C(=O)[C@@]2(O)C(O)=C3C(=O)c4c(O)cccc4[C@@](C)(O)[C@H]3[C@H](O)[C@@H]12 [oxytetracycline],2.3

# Tested on: Spiroplasma melliferum
# Assay: Microplate test of spiroplasma growth (OD=595 nm)
# Format: cell-based
# Conditions: 1 mM, single compound
# Protocol: For this reason, the potential inhibition of these substances was tested on Spiroplasma melliferum, a cultivable Mollicute. The experiment was conducted in a 96-wells microplate. 150 μl fresh broth containing phenol red and 4 μl spiroplasma cells (app. 10^5 cells) were added to each well. […] The microplate was incubated for two days at 28° C. and the color of the medium was scored by a plate-reader (Multiskan EX, Thermo scientific, Waltham, Mass. USA) at OD=595 nm.
row,Compound,spiroplasma growth inhibition
1,"O=Cc1ccnc2ccccc12 [Quinolinecarboxaldehyde, 4-Quinolinecarboxaldehyde]",inhibited
2,"c1cc2cnccn2c1 [Pyrrolo[1,2-a]pyrazine]",at 2 mM only

# Same assay, conditions: 2 mM, single compound
row,Compound,spiroplasma growth inhibition
1,"O=Cc1ccnc2ccccc12 [Quinolinecarboxaldehyde, 4-Quinolinecarboxaldehyde]",inhibited
2,"c1cc2cnccn2c1 [Pyrrolo[1,2-a]pyrazine]",inhibit

# Same assay, conditions: Spiroplasma melliferum, 48 h; two days at 28° C., FIG. 9; read-out: minimum inhibitory concentration (MIC)
row,Compound,MIC
1,CN(C)[C@@H]1C(O)=C(C(N)=O)C(=O)[C@@]2(O)C(O)=C3C(=O)c4c(O)cccc4[C@@](C)(O)[C@H]3[C@H](O)[C@@H]12 [oxytetracycline],350 µM

# Same assay, conditions: concentrations examined (2-0.02 mM), single compound
row,Compound,spiroplasma growth inhibition
1,"O=Cc1ccc(CO)o1 [Hydroxymethyl-2-furaldehyde, 5-Hydroxymethyl-2-furaldehyde]",No inhibition

# Same assay, conditions: two days at 28° C.
row,Compound,minimum inhibitory concentration (MIC) compared with reference oxytetracycline
1,"O=Cc1ccnc2ccccc12 [Quinolinecarboxaldehyde, 4-Quinolinecarboxaldehyde]",higher than the reference antibiotics
